The results in this text go back to US20220162163A1, “ALANINE-BASED MODULATORS OF PROTEOLYSIS AND ASSOCIATED METHODS OF USE” (Arvinas Operations, Inc., priority 2015, published 2022).

In the first assay the target is T1, Androgen receptor (AR) (Homo sapiens, UniProt P10275).
T1 construct: endogenous in cells; host or cells: VCaP
T1 sequence (P10275 1-920): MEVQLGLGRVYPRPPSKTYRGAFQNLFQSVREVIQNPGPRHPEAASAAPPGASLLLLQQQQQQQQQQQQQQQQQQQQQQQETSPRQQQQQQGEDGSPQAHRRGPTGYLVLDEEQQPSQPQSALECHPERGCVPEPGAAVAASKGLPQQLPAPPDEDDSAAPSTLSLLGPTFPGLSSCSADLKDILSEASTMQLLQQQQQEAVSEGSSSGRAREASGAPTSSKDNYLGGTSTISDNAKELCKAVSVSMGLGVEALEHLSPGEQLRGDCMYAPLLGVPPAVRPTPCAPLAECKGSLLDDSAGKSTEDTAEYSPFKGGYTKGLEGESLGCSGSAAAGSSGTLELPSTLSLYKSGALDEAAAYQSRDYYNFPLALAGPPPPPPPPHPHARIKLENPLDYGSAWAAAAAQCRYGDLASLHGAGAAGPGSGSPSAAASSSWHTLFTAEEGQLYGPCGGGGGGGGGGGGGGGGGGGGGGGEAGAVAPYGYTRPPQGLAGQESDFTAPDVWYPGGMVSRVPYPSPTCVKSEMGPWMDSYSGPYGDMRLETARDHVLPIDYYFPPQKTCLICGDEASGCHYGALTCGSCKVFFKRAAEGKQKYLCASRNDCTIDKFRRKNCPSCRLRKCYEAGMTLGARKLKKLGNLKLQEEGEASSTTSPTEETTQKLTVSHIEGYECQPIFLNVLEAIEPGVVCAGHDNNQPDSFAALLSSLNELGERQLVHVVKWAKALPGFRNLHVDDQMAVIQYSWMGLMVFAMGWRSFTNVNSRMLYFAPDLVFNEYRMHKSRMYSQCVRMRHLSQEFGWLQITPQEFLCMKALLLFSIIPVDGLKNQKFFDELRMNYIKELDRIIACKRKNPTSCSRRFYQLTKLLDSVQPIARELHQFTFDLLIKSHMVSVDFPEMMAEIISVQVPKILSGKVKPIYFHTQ
Put plainly: Cellular assay of androgen receptor (AR) degradation (VCaP cells, ELISA). As to conditions: 4 h; androgen receptor, VCaP cells, PROTAC concentration 1 μM, relative to DMSO control; read-out: Target protein degradation range. Format: cell-based. How it is done: Protocol of the Cellular Assay of Androgen Receptor (AR) Degradation (VCaP Cells, ELISA).
For detection Cell Signaling PathScan Sandwich Elisa Catalog #12850 Lot 11 was used. VCaP cells were cultured in ATCC DMEM+ATCC FBS and plated 40,000/well 100 μl/well in RPMI P/S with 5% CSS Omega (bovine) serum into a 96 well plate. The cells were grown for a minimum of 3 days, dosed with compounds in 0.1% DMSO (diluted with 5% CSS) and incubated with aspiration for 4 hours. 100 μl of 1× Cell Signaling lysis buffer #9803 (36 ml dH2O+4 ml Cell Signaling lysis buffer) was added. The incubation was placed on cold room shaker for 10 min at speed 8-9. 5 μl to 100 μl of Diluent was transferred to Elisa plate (0.15 ug/ml-0.075 ug/ml) and stored at 4 C overnight on cold room shaker speed 5 (gentle swirl) and then shaken next morning at 37° C. for 30 min. The preparation was washed 4×200 μl with Elisa wash buffer and aspirated with eight-channel aspirator. 100 μl/well of AR detection Ab was added after which the preparation was covered and shaken at 37° C. for 1 hr. 100 ul TMB was added, and the mixture was shaken for 5 min while under observation. When TMB turned light blue, 100 ul of Stop solution was added, and the mixture was shaken and read at 450 nm. Also read at 562 for background subtraction.
For `CN[C@@H](C)C(=O)N[C@H](C(=O)N1CC[C@@H]2CCN(CCc3ccc(OCCOCCOCCNc4ccc(C(=O)N[C@H]5C(C)(C)[C@H](Oc6ccc(C#N)c(Cl)c6)C5(C)C)cc4)cc3)C[C@@H]21)C1CCCCC1` (mixture of isomers) [Example 32, 4-[1-[4-(2-[1-[(2S)-2-cyclohexyl-2-[(2S)-2-(methylamino)propanamido]acetyl]-octahydro-1H-pyrrolo[2,3-c]pyridin-6-yl]ethyl)phenyl]-1,4,7-trioxa-10-azadecan-10-yl]-N-[(1r,3r)-3-(3-chloro-4-cyanophenoxy)-2,2,4,4-tetramethylcyclobutyl]benzamide], the Dmax at 1 µM lay in the range of 0 to 30%.
Same read-out and setting: in the case of `CN[C@@H](C)C(=O)N[C@H](C(=O)N1CC[C@@H]2CCN(CCc3ccc(OCCOCCOCCOCCNc4ccc(C(=O)N[C@H]5C(C)(C)[C@H](Oc6ccc(C#N)c(Cl)c6)C5(C)C)cc4)cc3)C[C@@H]21)C1CCCCC1` (racemic) [Example 33, N-((1r,3r)-3-(3-chloro-4-cyanophenoxy)-2,2,4,4-tetramethylcyclobutyl)-4-(2-(2-(2-(2-(4-(2-(1-((S)-2-cyclohexyl-2-((S)-2-(methylamino)propanamido)acetyl)-octahydropyrrolo[2,3-c]pyridin-6-yl)ethyl)phenoxy)ethoxy)ethoxy)ethoxy)ethylamino)benzamide] it was 30 to 60%; in that of `CN[C@@H](C)C(=O)N[C@H](C(=O)N1CCC[C@H]1C(=O)N[C@H]1c2ccccc2C[C@H]1OCCOCCOCCOCCOCCOc1ccc(C(=O)NC2C(C)(C)C(Oc3ccc(C#N)c(Cl)c3)C2(C)C)cc1)C(C)(C)C` (stereo partly drawn) [Example 1, 1-[3,3-dimethyl-(2S)-2-[(2S)-2-(methylamino)propanamido]butanoyl]-N-[(1S,2R)-2-[[1-(4-[[(1r,3r)-3-(3-chloro-4-cyanophenoxy)-2,2,4,4-tetramethylcyclobutyl]carbamoyl]phenyl)-1,4,7,10,13-pentaoxapentadecan-15-yl]oxy]-2,3-dihydro-1H-inden-1-yl]pyrrolidine-2-carboxamide], 30 to 60%.
Still for that read-out and setting: in the case of `CN[C@@H](C)C(=O)N[C@H](C(=O)N1CCC[C@H]1c1nc(-c2ccc(OCCOCCNc3ccc(C(=O)NC4C(C)(C)C(Oc5ccc(C#N)c(Cl)c5)C4(C)C)cc3)c3ccccc23)cs1)C1CCCCC1` (stereo partly drawn) [Example 29, 4-[(2-[2-[(4-[2-[(2S)-1-[(2S)-2-cyclohexyl-2-[(2S)-2-(methylamino)propanamido]acetyl]pyrrolidin-2-yl]-1,3-thiazol-4-yl]naphthalen-1-yl)oxy]ethoxy]ethyl)amino]-N-[(1r,3r)-3-(3-chloro-4-cyanophenoxy)-2,2,4,4-tetramethylcyclobutyl]benzamide] it was 0 to 30%; in that of `CN[C@@H](C)C(=O)N[C@H](C(=O)N1CCC[C@H]1c1nc(-c2ccc(OCCOCCOCCNc3ccc(C(=O)N[C@H]4C(C)(C)[C@H](Oc5ccc(C#N)c(Cl)c5)C4(C)C)cc3)c3ccccc23)cs1)C1CCCCC1` [Example 30, 4-[1-(4-[2-[(2S)-1-[(2S)-2-Cyclohexyl-2-[(2S)-2-(methylamino)propanamido]acetyl]pyrrolidin-2-yl]-1,3-thiazol-4-yl]naphthalen-1-yl)-1,4,7-trioxa-10-azadecan-10-yl]-N-[(1r,3r)-3-(3-chloro-4-cyanophenoxy)-2,2,4,4-tetramethylcyclobutyl]benzamide], 0 to 30%.
The same measure, in the same setting: in the case of `CN[C@@H](C)C(=O)N[C@H](C(=O)N1CCC[C@H]1c1nc(-c2ccc(OCCOCCOCCOCCNc3ccc(C(=O)N[C@H]4C(C)(C)[C@H](Oc5ccc(C#N)c(Cl)c5)C4(C)C)cc3)c3ccccc23)cs1)C1CCCCC1` [Example 31, 4-[1-(4-[2-[(2S)-1-[(2S)-2-cyclohexyl-2-[(2S)-2-(methylamino)propanamido]acetyl]pyrrolidin-2-yl]-1,3-thiazol-4-yl]naphthalen-1-yl)-1,4,7,10-tetraoxa-13-azatridecan-13-yl]-N-[(1r,3r)-3-(3-chloro-4-cyanophenoxy)-2,2,4,4-tetramethylcyclobutyl]benzamide] it was 0 to 30%.

The assay is the same for the next values; noted with them: @ 1 μM.
With `CN[C@@H](C)C(=O)N[C@H](C(=O)N1CCC[C@H]1C(=O)N[C@H]1c2ccccc2C[C@H]1OCCOCCOCCOc1ccc(C(=O)N[C@H]2C(C)(C)[C@H](Oc3ccc(C#N)c(Cl)c3)C2(C)C)cc1)C(C)(C)C` [(2S)-1-[(2S)-3,3-dimethyl-2-[(2S)-2-(methylamino)propanamido]butanoyl]-N-[(1S,2R)-2-(2-{2-[2-(4-{[(1r,3r)-3-(3-chloro-4-cyanophenoxy)-2,2,4,4-tetramethylcyclobutyl]carbamoyl}phenoxy)ethoxy]ethoxy}ethoxy)-2,3-dihydro-1H-inden-1-yl]pyrrolidine-2-carboxamide], the “Androgen receptor (AR) degradation in VCaP cells” value (“Androgen receptor” for short) turned out to be 18%.
Regarding `CN[C@@H](C)C(=O)N[C@H](C(=O)N1CCC[C@H]1C(=O)N[C@H]1c2ccccc2C[C@H]1OCCOCCOCCOCCOCCOc1ccc(C(=O)N[C@H]2C(C)(C)[C@H](Oc3ccc(C#N)c(Cl)c3)C2(C)C)cc1)C(C)(C)C` [(2S)-1-[(2S)-3,3-dimethyl-2-[(2S)-2-(methylamino)propanamido]butanoyl]-N-[(1S,2R)-2-{[1-(4-1{[(1r,3r)-3-(3-chloro-4-cyanophenoxy)-2,2,4,4-tetramethylcyclobutyl]carbamoyl}phenyl)-1,4,7,10,13-pentaoxapentadecan-15-yl]oxy}-2,3-dihydro-1H-inden-1-yl]pyrrolidine-2-carboxamide], the “Androgen receptor” value was determined as 38%.
Turning to `CN[C@@H](C)C(=O)N[C@H](C(=O)N1CCC[C@H]1C(=O)N[C@H]1c2ccccc2C[C@H]1OCCOCCOCCOCCOc1ccc(C(=O)N[C@H]2C(C)(C)[C@H](Oc3ccc(C#N)c(Cl)c3)C2(C)C)cc1)C(C)(C)C` [(2S)-1-[(2S)-3,3-dimethyl-2-[(2S)-2-(methylamino)propanamido]butanoyl]-N-[(1S,2R)-2-{[1-(4-1{[(1r,3r)-3-(3-chloro-4-cyanophenoxy)-2,2,4,4-tetramethylcyclobutyl]carbamoyl}phenyl)-1,4,7,10-tetraoxadodecan-12-yl]oxy}-2,3-dihydro-1H-inden-1-yl]pyrrolidine-2-carboxamide], the “Androgen receptor” value was 33%.

Still in this assay, the particulars now being: androgen receptor, VCaP cells, PROTAC concentration 1 μM, relative to DMSO control.
Regarding “1-[(2S)-3,3-dimethyl-2-[(2S)-2-(methylamino)propanamido]butanoyl]-N-[(1S,2R)-2-[[1-(4-[[(1r,3r)-3-(3-chloro-4-cyanophenoxy)-2,2,4,4-tetramethylcyclobutyl]carbamoyl]phenyl)-1,4,7,10-tetraoxadodecan-12-yl]oxy]-2,3-dihydro-1H-inden-1-yl]pyrrolidine-2-carboxamide [Example 3]”, the “Target protein degradation range” value is “B (degradation between 30% and 60%)”.
Same read-out and setting: in the case of `CN[C@@H](C)C(=O)N[C@H](C(=O)N1CCCC1C(=O)N[C@H]1c2ccccc2C[C@H]1OCCOCCOCCOc1ccc(C(=O)NC2C(C)(C)C(Oc3ccc(C#N)c(Cl)c3)C2(C)C)cc1)C(C)(C)C` (stereo partly drawn) [Example 2, 1-[(2S)-3,3-dimethyl-2-[(2S)-2-(methylamino)propanamido]butanoyl]-N-[(1S,2R)-2-(2-[2-[2-(4-[[(1r,3r)-3-(3-chloro-4-cyanophenoxy)-2,2,4,4-tetramethylcyclobutyl]carbamoyl]phenoxy)ethoxy]ethoxy]ethoxy)-2,3-dihydro-1H-inden-1-yl]pyrrolidine-2-carboxamide] it was “C (degradation between 0% and 30%)”.
